Reference: patent US6534632B2, “Sialidase localized in plasma membrane DNA coding for the same” (priority 1997, dated 2003)
Read-outs that look alike come from different tables or passages of the source.

How the values were obtained:
Format in all cases: biochemical
[1] = molecular target: T1, bovine membrane-bound sialidase (Bos taurus, UniProt O97859); experiment: Inhibition, activation and stabilization of purified bovine membrane-bound sialidase; details: in words
T1 construct: the sialidase activity was purified by more than 100,000 times from the bovine brain particulate fraction; from tissue; host or cells: bovine brain (particulate/membrane fraction, detergent-solubilized, 10-step chromatographic purification)
T1 sequence (O97859 1-428): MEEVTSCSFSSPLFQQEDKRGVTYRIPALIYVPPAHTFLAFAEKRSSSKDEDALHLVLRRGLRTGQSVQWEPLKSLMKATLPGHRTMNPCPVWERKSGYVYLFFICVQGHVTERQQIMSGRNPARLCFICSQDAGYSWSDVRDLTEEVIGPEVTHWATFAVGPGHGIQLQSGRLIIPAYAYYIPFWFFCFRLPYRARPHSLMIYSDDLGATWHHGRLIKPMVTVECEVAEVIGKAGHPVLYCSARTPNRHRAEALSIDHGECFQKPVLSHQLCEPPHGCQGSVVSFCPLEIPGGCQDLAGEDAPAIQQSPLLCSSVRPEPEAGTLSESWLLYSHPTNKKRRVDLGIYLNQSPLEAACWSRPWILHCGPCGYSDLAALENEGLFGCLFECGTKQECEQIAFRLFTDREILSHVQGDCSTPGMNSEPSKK

[2] = molecular target: T1, bovine membrane-bound sialidase; experiment: as above; details: for Inhibition of the sialidase: in words; for Inhibition (%): 100 minus residual activity (%)
Description: (§1) A reaction system (0.2 ml) contained 50-100 nmol of sialic acid-bound saccharide substrate, 0.2 mg of bovine serum albumin, […] of sodium acetate buffer (pH 4.6), 0.2 mg of Triton X-100, and an enzyme fraction, and a substrate consisting mainly of bovine brain mixed gangliosides (Sigma, Type II) was used.
(§2) A reaction mixture having the aforementioned composition was incubated at 37° C. for 15-60 minutes, and the reaction was stopped by quick freezing. The released sialic acid was quantitated by the thiobarbituric acid method of Warren (Warren L., J. Biol. Chem. 234, 1971-1975, 1959) at 549 nm and 532 nm. In Steps 1, 2, and 7 explained below, the quantitation was performed by the same method after the reaction product was passed through an AGX-2 ion exchange mini column. The amount of the sialic acid (nmol) released per hour was defined as 1 unit. When a synthetic substrate, 4-methylumbelliferyl N-acetylneuraminic acid (4MU-NeuAc) was used as the sialic acid-bound saccharide substrate, Triton X-100 was excluded from the reaction system, and released 4-methylumbelliferone was quantitated by a fluorospectrophotometer.
The numerical values each represent 100 minus (residual activity (%) in the presence of inhibitor).

[3] = molecular target: T1, bovine membrane-bound sialidase; experiment: Sialidase activity of purified bovine membrane-bound sialidase for various substrates (substrate specificity); details: for Hydrolysis activity (%): relative activity, activity for GD3-ganglioside defined as 100, purified enzyme
Description: as §1, §2
The results of investigations about the activity of the enzyme of the present invention for various substrates are shown in Table 2. The numerical values represent relative activity when the activity for the GD3-ganglioside is defined to be 100.

Molecule | Substrate specificity: whether the sialidase acts on the substrate [3] | Hydrolysis activity (%) [3] [%] | other results
O[C@H](CS)[C@H](O)CS (racemic) [dithiothreitol] | – | – | Stabilization of the sialidase [1]: stabilized
CC(=O)N[C@H]1[C@H]([C@H](O)[C@H](O)CO)OC(C(=O)O)=C[C@@H]1O [2-deoxy-2,3-dehydro-N-acetylneuraminic acid] | – | – | Inhibition of the sialidase [2]: weakly inhibited; Inhibition (%) ([2]; inhibitor 0.2 mM): 45%; Stabilization of the sialidase [1]: stabilized
O=C(O)c1cc[c]([Hg][OH])cc1 [4-Hydroxy mercury benzoate] | – | – | Inhibition of the sialidase [2]: strongly inhibited; Inhibition (%) ([2]; inhibitor 50 μM): 92%
[Cl][Cu][Cl] [CuCl2] | – | – | Inhibition (%) ([2]; inhibitor 1 mM): 95%
[Cu+2] [Cu^2+] | – | – | Inhibition of the sialidase [2]: strongly inhibited
OCC(O)CO [glycerol] | – | – | Stabilization of the sialidase [1]: stabilized
GD1a-ganglioside | acts on | 56 | –
GD3-ganglioside | acts on | 100 | –
GM1-ganglioside | does not substantially act on | 1 | –
GM3-ganglioside | acts on | 62 | –
Triton X-100 | – | – | Sialidase activity in the presence of surface active agent ([2]; 0.1 to 0.2% of Triton X-100): highly active

The next lines start with results.

Substrate specificity: whether the sialidase acts on the substrate [3] | Hydrolysis activity (%) [3] [%] | Molecule | other results
weakly acts on | 25 | CC(=O)N[C@H]1[C@H]([C@H](O)[C@H](O)CO)OC(Oc2ccc3c(C)cc(=O)oc3c2)(C(=O)O)C[C@@H]1O (some centres unmarked) [4-MUNeuAc, 4-methylumbelliferyl N-acetylneuraminic acid] | –
did not act on | 11 | CC(=O)N[C@H]1[C@H]([C@H](O)[C@H](O)CO)O[C@@](O[C@H]2[C@@H](O)[C@@H](CO)O[C@@H](O[C@H]3[C@H](O)[C@@H](O)C(O)O[C@@H]3CO)[C@@H]2O)(C(=O)O)C[C@@H]1O (stereo partly drawn) [α2-3 syalyllactose, α2-3 sialyllactose] | Substrate specificity: whether the sialidase acts on the substrate ([3]; listed as α2-3 sialyllactose): weakly acts on
does not substantially act on | 2 | Fetuin: glycoprotein substrate | –
does not substantially act on | 3 | GM2-ganglioside | –
does not substantially act on | 2 | Orosomucoid: glycoprotein substrate | –
